Measurements reported in patent publication US4904660A, “Histidine derivatives as superior renin inhibitors” (Yamanouchi Pharmaceutical Co., Ltd., priority 1987, dated 1990).

target: T1, human plasma renin (Homo sapiens, UniProt P00797); test: Inhibiting effect to human plasma renin; assay type: biochemical; details: angiotensin I formation by radio-immunoassay, 37° C., 2 hours, pH4.6, read-out: IC50 /human plasma (50% inhibiting concentration)
T1 construct: Into human plasma; from tissue; host or cells: human plasma
T1 sequence (P00797 67-406): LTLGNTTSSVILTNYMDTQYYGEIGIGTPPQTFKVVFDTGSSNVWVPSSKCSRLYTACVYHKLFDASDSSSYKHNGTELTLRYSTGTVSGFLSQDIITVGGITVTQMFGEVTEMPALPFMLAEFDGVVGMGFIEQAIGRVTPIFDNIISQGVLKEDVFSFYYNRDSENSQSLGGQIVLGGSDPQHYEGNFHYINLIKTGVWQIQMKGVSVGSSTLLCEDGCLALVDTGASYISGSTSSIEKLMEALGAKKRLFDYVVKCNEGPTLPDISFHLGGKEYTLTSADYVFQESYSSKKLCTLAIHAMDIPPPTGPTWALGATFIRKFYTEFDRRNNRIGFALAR
Protocol: (1) Inhibiting effect to human plasma renin.
Into human plasma (250 μl) having 0.5 ng/ml/hr (37° C.)-angiotensin I forming activity was added 225 μl of an enzyme-inhibitor (BAL, […], pH4.6) and 25 μl of a solution of the test compound in dimethylsulfoxide, and the mixture was stirred. Some portion of the stirred mixture was subjected to incubation at 37° C. for 2 hours, and the rest of the mixture was left at 4° C. Taking 100 μl of each of the mixtures, by measuring the difference of the angiotensin I forming amount by radio-immunoassay at 37° C. and 4° C., the 50% inhibiting concentration IC50 (M) was calculated.

IC50 [nM]	Compound
4	Cn1nnnc1SCC(O)[C@H](CC1CCCCC1)NC(=O)[C@H](Cc1cnc[nH]1)NC(=O)[C@H](Cc1ccccc1)NC(=O)OC(C)(C)C (stereo partly drawn) [Example 9]
0.5	Cn1nnnc1SCC(O)[C@H](CC1CCCCC1)NC(=O)[C@H](Cc1cnc[nH]1)NC(=O)C(CC(=O)N1CCOCC1)Cc1cccc2ccccc12 (stereo partly drawn) [Example 7, (2RS,3S)-3-[N-[1,4-dioxo-4-morpholino-2-(1-naphthylmethyl)butyl-L-histidylamino)]-4-cyclohexyl-1-(1-methyl-5-tetrazolylthio]-2-butanol]
4	CC(C)OC(=O)C(O)[C@H](CC1CCCCC1)NC(=O)[C@H](Cc1c[nH]cn1)NC(=O)C(CC(=O)N1CCOCC1)Cc1cccc2ccccc12 (stereo partly drawn) [Example 40]
